For the test, the target named is human TrkA receptor (Homo sapiens (Human), UniProt P04629). Nature of the test: DiscoverX PathHunter TrkA functional assay. Type of test: cell-based. To be noted: U2OS cells expressing human TrkA-ProLink, Shc1-EA and p75NTR; compound 1 h, then NGF at ~80% of maximal response for 3 h; luminescence.

For 20 molecules, IC50 results are on record in US9914736B2, “TrKA kinase inhibitors, compositions and methods thereof” (Merck Sharp & Dohme Corp., priority 2014, dated 2018).

The structures appear in SMILES notation.

The IC50 is the midpoint of a concentration-inhibition curve.

human TrkA receptor, sequence (P04629 33-796): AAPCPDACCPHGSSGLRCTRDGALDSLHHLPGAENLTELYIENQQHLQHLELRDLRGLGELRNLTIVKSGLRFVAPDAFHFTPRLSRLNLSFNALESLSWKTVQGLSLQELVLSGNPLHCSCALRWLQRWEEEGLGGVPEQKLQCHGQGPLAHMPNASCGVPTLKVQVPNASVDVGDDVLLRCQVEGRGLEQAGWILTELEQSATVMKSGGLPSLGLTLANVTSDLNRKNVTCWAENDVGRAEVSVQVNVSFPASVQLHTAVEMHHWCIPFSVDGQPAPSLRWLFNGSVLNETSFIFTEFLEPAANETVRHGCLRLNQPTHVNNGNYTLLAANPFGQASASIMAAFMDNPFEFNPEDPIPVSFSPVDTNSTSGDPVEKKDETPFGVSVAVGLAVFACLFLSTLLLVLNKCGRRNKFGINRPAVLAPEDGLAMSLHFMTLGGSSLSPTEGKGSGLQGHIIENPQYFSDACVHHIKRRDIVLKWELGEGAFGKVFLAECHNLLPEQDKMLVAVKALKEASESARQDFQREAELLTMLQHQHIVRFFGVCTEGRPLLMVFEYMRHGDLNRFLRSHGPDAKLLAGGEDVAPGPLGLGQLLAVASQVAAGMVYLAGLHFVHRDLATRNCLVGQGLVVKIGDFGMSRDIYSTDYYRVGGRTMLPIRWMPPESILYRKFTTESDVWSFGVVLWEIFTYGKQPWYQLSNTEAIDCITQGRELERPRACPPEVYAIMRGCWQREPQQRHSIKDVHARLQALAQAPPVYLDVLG

In turn, `O=C(Nc1cc(Cc2n[nH]c(=O)s2)nn1-c1ccc(F)cc1)c1cc(-c2ncccn2)c(C(F)(F)F)cc1F` [Compound 89, 2-fluoro-N-(1-(4-fluorophenyl)-3-((5-oxo-4,5-dihydro-1,3,4-thiadiazol-2-yl)methyl)-1H-pyrazol-5-yl)-5-(pyrimidin-2-yl)-4-(trifluoromethyl)benzamide] yielded an IC50 of 4.8 nM.
`Cn1cc(Cc2cc(NC(=O)c3ccc(C(F)(F)F)c(-c4ccn(C)n4)c3)n(-c3ccc(F)cc3)n2)cn1` [Compound 90, N-(1-(4-fluorophenyl)-3-((1-methyl-1H-pyrazol-4-yl)methyl)-1H-pyrazol-5-yl)-3-(1-methyl-1H-pyrazol-3-yl)-4-(trifluoromethyl)benzamide] displayed an IC50 of 3.6 nM.
The value for `Cn1ccc(-c2cc(C(=O)Nc3cc(Cc4cnc(N)nc4)nn3-c3ccc(F)cc3)ccc2C(F)(F)F)n1` [Compound 91, N-(3-((2-aminopyrimidin-5-yl)methyl)-1-(4-fluorophenyl)-1H-pyrazol-5-yl)-3-(1-methyl-1H-pyrazol-3-yl)-4-(trifluoromethyl)benzamide] was 6.1 nM; that for `Cn1ccc(-c2cc(C(=O)Nc3cc(Cc4nnc(N)o4)nn3-c3ccc(F)cc3)ccc2C(F)(F)F)n1` [Compound 92, N-(3-((5-amino-1,3,4-oxadiazol-2-yl)methyl)-1-(4-fluorophenyl)-1H-pyrazol-5-yl)-3-(1-methyl-1H-pyrazol-3-yl)-4-(trifluoromethyl)benzamide] was 1.3 nM; that for `O=C(Nc1cc(CCO)nn1-c1ccc(F)cc1)c1cc(-c2ncccn2)c(C(F)(F)F)cc1F` [Compound 93, 2-fluoro-N-(1-(4-fluorophenyl)-3-(2-hydroxyethyl)-1H-pyrazol-5-yl)-5-(pyrimidin-2-yl)-4-(trifluoromethyl)benzamide] was 12 nM.
For `Cn1ccc(-c2cc(C(=O)Nc3cc(Cc4cnc(N)cn4)nn3-c3ccc(F)cc3)ccc2C(F)(F)F)n1` [Compound 94, N-(3-((5-aminopyrazin-2-yl)methyl)-1-(4-fluorophenyl)-1H-pyrazol-5-yl)-3-(1-methyl-1H-pyrazol-3-yl)-4-(trifluoromethyl)benzamide], the IC50 was determined as 1.7 nM.
The value for `Cn1ccc(-c2cc(C(=O)Nc3cc(Cc4cncnc4)nn3-c3ccc(F)cc3)ccc2C(F)(F)F)n1` [Compound 95, N-(1-(4-fluorophenyl)-3-(pyrimidin-5-ylmethyl)-1H-pyrazol-5-yl)-3-(1-methyl-1H-pyrazol-3-yl)-4-(trifluoromethyl)benzamide] was 1.4 nM; that for `Cn1ccc(-c2cc(C(=O)Nc3cc(Cc4cc[nH]n4)nn3-c3ccc(F)cc3)ccc2C(F)(F)F)n1` [Compound 96, N-(3-((1H-pyrazol-3-yl)methyl)-1-(4-fluorophenyl)-1H-pyrazol-5-yl)-3-(1-methyl-1H-pyrazol-3-yl)-4-(trifluoromethyl)benzamide] was 3.7 nM; that for `O=C(Nc1cc(CO)nn1-c1ccc(F)cc1)c1cc(-c2ncccn2)c(C(F)(F)F)cc1F` [Compound 97, 2-fluoro-N-(1-(4-fluorophenyl)-3-(hydroxymethyl)-1H-pyrazol-5-yl)-5-(pyrimidin-2-yl)-4-(trifluoromethyl)benzamide] was 14 nM.
In the case of `Cn1ccc(-c2cc(C(=O)Nc3cc(Cc4ccc[nH]c4=O)nn3-c3ccc(F)cc3)ccc2C(F)(F)F)n1` [Compound 98, N-(1-(4-fluorophenyl)-3-((2-oxo-1,2-dihydropyridin-3-yl)methyl)-1H-pyrazol-5-yl)-3-(1-methyl-1H-pyrazol-3-yl)-4-(trifluoromethyl)benzamide] it was 3.8 nM; in that of `O=C(Nc1cc(-c2ccc(CCO)cc2)nn1-c1ccc(F)cc1)c1cc(-c2ncccn2)c(C(F)(F)F)cc1F` [Compound 101, 2-fluoro-N-(1-(4-fluorophenyl)-3-(4-(2-hydroxyethyl)phenyl)-1H pyrazol-5-yl)-5-(pyrimidin-2-yl)-4-(trifluoromethyl)benzamide], 3.4 nM.
The value for `Cn1ccc(-c2cc(C(=O)Nc3cc(Cc4nnnn4C)nn3-c3ccc(F)cc3)c(F)cc2C(F)(F)F)n1` [Compound 102, 2-fluoro-N-(1-(4-fluorophenyl)-3-((1-methyl-1H-tetrazol-5-yl)methyl)-1H-pyrazol-5-yl)-5-(1-methyl-1H-pyrazol-3-yl)-4-(trifluoromethyl)benzamide] was 0.4 nM.
`NCc1cccc(-c2cc(NC(=O)c3cc(-c4ncccn4)c(C(F)(F)F)cc3F)n(-c3ccc(F)cc3)n2)c1` [Compound 103, N-(3-(3-(aminomethyl)phenyl)-1-(4-fluorophenyl)-1H-pyrazol-5-yl)-2-fluoro-5-(pyrimidin-2-yl)-4-(trifluoromethyl)benzamide] returned an IC50 of 2.4 nM.
As to `Cn1nnnc1Cc1cc(NC(=O)c2cc(-c3ncccn3)c(C(F)(F)F)cc2F)n(-c2ccc(F)cc2)n1` [Compound 104, 2-fluoro-N-(1-(4-fluorophenyl)-3-((1-methyl-1H-tetrazol-5-yl)methyl)-1H-pyrazol-5-yl)-5-(pyrimidin-2-yl)-4-(trifluoromethyl)benzamide], half-maximal inhibition (IC50) required 1.6 nM.
Turning to `Cn1ccc(-c2cc(C(=O)Nc3cc(Cc4ccc(=O)[nH]n4)nn3-c3ccc(F)cc3)c(F)cc2C(F)(F)F)n1` [Compound 105, 2-fluoro-N-(1-(4-fluorophenyl)-3-((6-oxo-1,6-dihydropyridazin-3-yl)methyl)-1H-pyrazol-5-yl)-5-(1-methyl-1H-pyrazol-3-yl)-4-(trifluoromethyl)benzamide], the IC50 turned out to be 0.98 nM.
The value for `O=C(Nc1sc(-c2cnn(CCO)c2)nc1-c1ccccc1)c1cc(-c2ncccn2)c(C(F)(F)F)cc1F` [Compound 106, 2-fluoro-N-(2-(1-(2-hydroxyethyl)-1H-pyrazol-4-yl)-4-phenylthiazol-5-yl)-5-(pyrimidin-2-yl)-4-(trifluoromethyl)benzamide] was 6.7 nM.
The molecule `Cn1ccc(-c2cc(C(=O)Nc3c4c(nn3-c3ccccc3)CC(=O)NC4)c(F)cc2C(F)(F)F)n1` [Compound 108, 2-fluoro-5-(1-methyl-1H-pyrazol-3-yl)-N-(6-oxo-2-phenyl-4,5,6,7-tetrahydro-2H-pyrazolo[4,3-c]pyridin-3-yl)-4-(trifluoromethyl)benzamide] displayed an IC50 of 4.6 nM.
In the case of `Cn1ccc(-c2cc(C(=O)Nc3cn(CCO)nc3-c3ccccc3)c(F)cc2C(F)(F)F)n1` [Compound 109, 2-fluoro-N-(1-(2-hydroxyethyl)-3-phenyl-1H-pyrazol-4-yl)-5-(1-methyl-1H-pyrazol-3-yl)-4-(trifluoromethyl)benzamide] it was 16 nM.
The value for `NC(=O)OCc1cc(NC(=O)c2cc(-c3ncccn3)c(C(F)(F)F)cc2F)n(-c2ccc(F)cc2)n1` [Compound 110, (5-(2-fluoro-5-(pyrimidin-2-yl)-4-(trifluoromethyl)benzamido)-1-(4-fluorophenyl)-1H-pyrazol-3-yl)methyl carbamate] was 7 nM; that for `Cn1ccc(-c2cc(C(=O)Nc3cc(CC(N)=O)nn3-c3ccc(F)cc3)c(F)cc2C(F)(F)F)n1` [Compound 111, N-(3-(2-amino-2-oxoethyl)-1-(4-fluorophenyl)-1H-pyrazol-5-yl)-2-fluoro-5-(1-methyl-1H-pyrazol-3-yl)-4-(trifluoromethyl)benzamide] was 2.4 nM.
